Test system: cisplatin-induced emesis in ferrets
Experiment: Ferret emesis, cisplatin-induced retches and vomits (Assay 3)
Assay type: in vivo
Conditions: Mustela putorius; p.o., cisplatin 10 mg/kg i.v. 60 minutes after oral dosing; 4 h observation; read-out: ferret emesis: ID90
Experimental: ASSAY 3: Ferret Emesis Individually housed male ferrets (1.0-2.5 kg) are dosed orally by gavage with test compound. Ten minutes later they are fed with approximately 10 g of tinned cat food. At 60 minutes following oral dosing, cisplatin (10 mg/kg) is given i.v. via a jugular vein catheter inserted under a brief period of halothane anaesthesia. The catheter is then removed, the jugular vein ligated and the skin incision closed. The ferrets recover rapidly from the anaesthetic and are mobile within 10-20 minutes. The animals are observed continuously during recovery from the anaesthetic and for 4 hours following the cisplatin injection. The numbers of retches and vomits occurring during the 4 hours after cisplatin administration are recorded by trained observers.

C[C@@H](O[C@H]1OCCN(Cc2n[nH]c(=O)[nH]2)[C@H]1c1ccc(F)cc1)c1cc(C(F)(F)F)cc(C(F)(F)F)c1 [2-(R)-(1-(R)-(3,5-bis(trifluoromethyl)phenyl)ethoxy)-3-(S)-(4-fluorophenyl)-4-(3-(5-oxo-1H, 4H-1,2,4-triazolo)methyl)-morpholine]
ED90: < 3 mg/kg

Reference: US5952330A, “Use of NK-1 receptor antagonists for treating mania” (Merck Sharp & Dohme Ltd., priority 1997, dated 1999)
